Values quoted from earlier work in patent US8048906B2, “Optically pure and enriched isomers of chelating ligands and contrast agents” (Catalyst Medical, priority 2003, dated 2011).
pKd: −log10 of the molar value.

Conditions: binds to HA; peptide isolated from a random 12-mer phage peptide library (Mummert et al., J. Exp. Med. 2000)

Q: With GAHWQFNALTVR as the sequence, how does the pKd read?
A: ~6.00
